Source: BindingDB's records for doi:10.1038/nchembio.2306 (AbbVie Inc, 2017)

Tests used:
Polycomb protein EED [1] = biological target: T1, Polycomb protein EED (Homo sapiens, UniProt O75530); experiment: TR-FRET Binding Assay; settings: pH 7.5; 25 °C
Protocol: (§1) The following buffer was used to set up the binding reactions: 20 mM Tris-HCl pH 7.5, 200 mM NaCl, 0.01% Tween-20, 10 μM DTT, and 0.05% BSA, with the DTT and BSA added fresh before initiating the binding assay. […] The reactions were then incubated for 1 h at 25 °C in a humidified chamber to obtain thermodynamic equilibrium before detection on the PerkinElmer Envision plate reader using a LanthaScreen TR-FRET protocol.

Polycomb protein EED [2] = biological target: T1, Polycomb protein EED; experiment: Radioligand Binding Assay; settings: 23 °C
Protocol: 30 μl of reaction mixtures were incubated at 23 °C for 70 min. To stop the enzymatic reactions, 150 μl of 10% trichloroacetic acetic acid (TCA) was added, mixed and transferred to filter plates (Millipore; cat. # MSFBN6B10). Plates were centrifuged at 2,000 r.p.m. (Allegra X-15R - Beckman Coulter, Inc.) for 2 min followed by two additional 10% TCA washes and one ethanol wash followed by centrifugation.

Polycomb protein EED [3] = biological target: T1, Polycomb protein EED; experiment: EED A-395 Peptide Competition Assay; settings: pH 7.5; 25 °C
Protocol: as §1, with “chamber” for “chamber to obtain thermodynamic equilibrium”, “an AlphaLISA/Screen” for “a LanthaScreen TR-FRET”

T1 sequence (O75530 whole entry): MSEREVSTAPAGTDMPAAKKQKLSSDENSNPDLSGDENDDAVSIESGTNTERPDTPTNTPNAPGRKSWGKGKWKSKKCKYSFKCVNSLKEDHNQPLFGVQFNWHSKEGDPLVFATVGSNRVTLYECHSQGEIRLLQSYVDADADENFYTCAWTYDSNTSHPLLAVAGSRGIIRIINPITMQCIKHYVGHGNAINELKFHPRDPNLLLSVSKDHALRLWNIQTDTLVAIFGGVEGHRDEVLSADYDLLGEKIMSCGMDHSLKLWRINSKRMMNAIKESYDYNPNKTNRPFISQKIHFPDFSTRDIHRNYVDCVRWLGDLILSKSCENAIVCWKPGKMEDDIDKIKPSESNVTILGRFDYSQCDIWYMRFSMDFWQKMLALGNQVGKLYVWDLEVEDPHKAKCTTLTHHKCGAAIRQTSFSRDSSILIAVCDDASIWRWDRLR

Structure (SMILES)	Ki (Polycomb protein EED [1]) [nM]	IC50 (Polycomb protein EED [2]) [nM]	IC50 (Polycomb protein EED [3]) [nM]
Cc1cccc(F)c1CN1C[C@H](c2cn(C)c3ccccc23)[C@@H](N(C)C)C1 (racemic) [rac-(3R,4S)-1-(2-fluoro-6-methylbenzyl)-N,N-dimethyl-4-(1-methyl-1H-indol-3-yl)pyrrolidin-3-amine (2)]	4		
CN(C)[C@H]1CN([C@H]2CCc3cccc(F)c32)C[C@@H]1c1cn(C)c2ccccc12 [(3R,4S)-1-[(1S)-7-fluoroindan-1-yl]-N,N-dimethyl-4-(1-methylindol-3-yl)pyrrolidin-3-amine (3)]	1		
CN(C)[C@@H]1CN(Cc2ccccc2)C[C@H]1c1ccc(N2CCN(S(C)(=O)=O)CC2)cc1 [A-395N (6)]	1830	> 50000	1320
